{"source": "patent US7786112B2", "about": "“Inhibitors of cyclin-dependent kinases, compositions and uses related thereto” (Agennix USA Inc., priority 2003, dated 2010)", "key": {"HCT-116 cells [1]": {"test_system": "HCT-116 cells", "assay": "Cell cycle analysis with propidium iodide (FACS)", "type": "cell-based, human", "conditions": "HCT-116, PI FACS", "procedure": "The percentage of cells in the G1, S and G2/M phases of the cell cycle was determined by staining DNA with propidium iodide and quantifying the number of cells with a 2N or 4N DNA complement by flow cytometry. Alterations in the distribution of cells across the cell cycle in response to exposure to the Cdk inhibitors was evaluated in this manner.\n3 sets of HCT-116 cells (100,000 cells/set) were cultured in the presence of a test compound in T-25 flasks according to Table 1 below. Analysis was performed at 24, 48 and 72 hours. Adherent cells were collected by trypsinization, combined with floating cells in Falcon 12×75 flow cytometric tubes, and harvested by centrifugation. The media was decanted from the cell pellet, 100 μl of PI stain was added and the cells were incubated at 37° C. for 20-25 minutes. The cell count was preferably no greater than 2×10^6-4×10^6/ml. An equal volume (100 μl) of PI salt was then added to the cells, which were then incubated at 4° C. for 1-2 hours. The stained cells were analyzed on a Becton Dickinson FACScan flow cytometer. Samples were protected from light."}, "HCT-116": {"test_system": "HCT-116", "assay": "Calcein AM viability assay, HCT-116", "type": "cell-based", "conditions": "Homo sapiens, HCT-116, non-protein adjusted, Table 6", "procedure": "The potency of Cdk inhibitors, as measured by loss of cellular viability, was determined with the Calcein AM assay (Molecular Probes). Calcein AM is a substrate of intracellular esterases, which is cleaved only in viable cells to generate a fluorescent product that can be quantified with a fluorescent plate reader. The fluorescent signal is proportional to the number of viable cells, and thus loss of signal in response to the exposure of cells to Cdk inhibitors correlates with a loss of viability. This assay can distinguish cell cycle arrest, in which cells may still by viable, from loss of viability and is thus well suited for the evaluation of Cdk inhibitors. A compound that is a potent cytotoxic, may cause significant loss of cell viability in such assay.\nCellular IC50's were determined in the human colorectal carcinoma cell line, HCT-116, and the normal human fibroblast, IMR90. Protein adjusted IC50's were also determined in HCT-116.\nHCT-116 or IMR90 cells were recovered from sub-confluent plates by trypsinization and 1,000 or 4,000 cells, respectively, were plated in 24-well dishes and incubated overnight at 37° C., 5% CO2. HCT-116 cells were cultured in RPMI-1640, 10% FCS, and IMR90 cells were cultured in Minimum Essential Medium-alpha, 10% FCS. After overnight incubation to allow adherence, the media was aspirated from each well and replaced with media containing a test compound at a concentration from 0 to 250 nM, spanning a total of 7 doses. The plates were returned to the incubator and cultured for an additional 72 hours (3 days). […] After 72-hours incubation with the test compound, the cells were washed twice with 1×PBS, taking special care to remove all residual buffer.\nA 5 μM Calcein AM solution was prepared by dissolving a 50 μg aliquot of Calcein (Molecular Probes catalog # C3100) in 50 μl DMSO. After the Calcein had completely dissolved (10 minutes at room temperature), it was diluted into 10 ml PBS. Calcein/PBS (0.5 ml) was added to each well. The plates were incubated for 75 minutes at 37° C. (protected from light) and the fluorescent signal was read on a fluorescent plate reader (excitation 485/20 and emission 530/25)."}, "Cdc2/cyclin B": {"molecular_target": "T1, Cdc2/cyclin B (Homo sapiens, UniProt P06493)", "T1 construct": "purchased", "T1 sequence (P06493 whole entry, species assumed)": "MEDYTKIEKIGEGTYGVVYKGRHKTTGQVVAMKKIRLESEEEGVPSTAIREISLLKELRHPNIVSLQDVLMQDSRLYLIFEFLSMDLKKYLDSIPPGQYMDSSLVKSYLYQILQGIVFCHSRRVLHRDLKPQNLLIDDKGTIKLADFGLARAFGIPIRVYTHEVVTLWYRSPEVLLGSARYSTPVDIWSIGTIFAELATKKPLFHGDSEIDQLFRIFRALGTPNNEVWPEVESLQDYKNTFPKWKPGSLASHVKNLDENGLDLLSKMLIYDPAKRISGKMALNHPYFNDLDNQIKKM", "T1 sequence (P14635 whole entry partner, species assumed)": "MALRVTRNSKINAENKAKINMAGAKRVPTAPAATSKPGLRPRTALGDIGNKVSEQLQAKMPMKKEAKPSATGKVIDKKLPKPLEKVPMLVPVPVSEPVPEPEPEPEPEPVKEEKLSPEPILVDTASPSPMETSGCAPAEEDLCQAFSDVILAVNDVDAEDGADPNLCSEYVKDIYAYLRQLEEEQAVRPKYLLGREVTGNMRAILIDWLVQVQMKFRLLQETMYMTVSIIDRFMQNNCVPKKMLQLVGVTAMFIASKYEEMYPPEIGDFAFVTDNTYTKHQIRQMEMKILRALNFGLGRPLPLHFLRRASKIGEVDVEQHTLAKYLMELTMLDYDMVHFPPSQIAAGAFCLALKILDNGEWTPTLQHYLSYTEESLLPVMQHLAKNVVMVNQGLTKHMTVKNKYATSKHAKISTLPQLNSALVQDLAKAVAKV", "assay": "Cdc2/cyclin B kinase assay (Histone H1, TCA precipitation)", "type": "biochemical", "conditions": "Table 6", "excerpt": "(§1) Enzymes: Cdc2/cyclin B was obtained from commercial sources. Cdk2/his-cyclin Eshort was expressed in Sf9 cells. Cdk2/cyclin A, cdk4/cyclin D1, and cdk6/cyclin D2 were expressed in Sf9 cells. Protein kinase A (catalytic subunit, from bovine heart) and protein kinase C (mixed isozymes from rat brain) were obtained from commercial sources.\n(§2) Substrates: Histone H1 was from commercial sources. GST-Rb is glutathione-S-transferase fused to the N-terminal of residues 379-928 of the Rb protein.\nAssays: Cdc2/cyclinB activity was determined by measuring incorporation of radio-activity from adenosine [γ-^32P]triphosphate into Histone H1 using a TCA precipitation assay. Cdc2/cyclin B kinase and Histone H1 were obtained from commercial sources. […] The filter was washed ten times with 25% (w/v) trichloroacetic acid, and the amount of incorporated ^32P was determined by scintillation counting after adding 100 μL scintillant (Microscint 20, Packard Instruments). Relative activity was determined by dividing the amount of radioactivity incorporated in the presence of compound by the amount of radioactivity incorporated in a control experiment containing DMSO alone but no compound. The background radioactivity, determined in an experiment containing 50 mM EDTA in place of compound, was subtracted from all results before calculations. […]"}, "Cdk4/cyclin D1": {"molecular_target": "T2, Cdk4/cyclin D1 (Homo sapiens, UniProt P11802)", "T2 construct": "made in house; host or cells: Sf9 insect cells", "T2 sequence (P11802 whole entry, species assumed)": "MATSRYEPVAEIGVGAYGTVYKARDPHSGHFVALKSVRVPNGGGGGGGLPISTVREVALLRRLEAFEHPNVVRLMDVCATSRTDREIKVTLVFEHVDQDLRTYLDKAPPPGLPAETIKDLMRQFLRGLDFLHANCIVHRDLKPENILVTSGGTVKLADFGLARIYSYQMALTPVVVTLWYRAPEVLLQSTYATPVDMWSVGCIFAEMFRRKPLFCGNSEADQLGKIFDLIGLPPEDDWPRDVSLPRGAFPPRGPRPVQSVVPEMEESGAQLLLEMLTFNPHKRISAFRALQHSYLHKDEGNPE", "T2 sequence (P24385 whole entry partner, species assumed)": "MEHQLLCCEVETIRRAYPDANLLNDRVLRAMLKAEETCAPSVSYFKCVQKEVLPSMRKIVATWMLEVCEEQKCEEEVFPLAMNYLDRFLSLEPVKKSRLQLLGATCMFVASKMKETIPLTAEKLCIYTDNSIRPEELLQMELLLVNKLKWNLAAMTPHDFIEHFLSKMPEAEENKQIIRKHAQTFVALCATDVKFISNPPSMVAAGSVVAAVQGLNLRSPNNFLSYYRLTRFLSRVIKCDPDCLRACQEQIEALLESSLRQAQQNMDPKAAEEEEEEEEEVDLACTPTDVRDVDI", "assay": "Cdk4/cyclin D1 kinase assay (GST-Rb, glutathione-sepharose capture)", "type": "biochemical", "conditions": "Table 6", "excerpt": "as §1, §2\nCdk2/cyclin E, Cdk2/cyclin A, Cdk4/cyclin D1, and Cdk6/cyclin D2 activity was determined using a glutathione-sepharose capture assay. […] After washing the retained beads five time with phosphate-buffered saline containing 0.3% (w/v) Tween-20, the amount of ^33P incorporated was determined by scintillation counting after adding 100 μL scintillant. Relative activity was determined by dividing the amount of radioactivity incorporated in the presence of compound by the amount of radioactivity incorporated in a control experiment containing DMSO alone but no compound. The background radioactivity, determined in an experiment containing 50 mM disodium ethylenediamine tetraacetate in place of compound, was subtracted from all results before calculations."}, "HCT-116 cells [2]": {"test_system": "HCT-116 cells", "assay": "Clonogenic survival assay", "type": "cell-based, human", "conditions": "HCT-116 clonogenic time-course, at 100 nM", "procedure": "This assay was used to determine the concentration of a compound that results irreversible loss of viability after a specified period of exposure. Essentially, cells are exposed to compound for a period of 1, 2 or 5 days, and are then transferred to compound-free growth medium. After continued incubation in the compound-free medium for a number of days, the number of colonies recovered is counted as an estimate of the number of surviving cells.\nMedia (RPMI-1640, 10% FCS, pen/strep) was pre-warmed to 37° C. in a water bath. Cells were incubated and grown at 37° C., 5% CO2. Cells were recovered by trypsinization from sub-confluent plates and counted using a hemocytometer. 1×10^4 cells were plated in 25 mls of media in a 15 cm tissue culture dish. 14 plates were set up for each test compound, and were incubated overnight at 37° C. The compound was diluted into media at 7 concentrations and the media on the cells was replaced with that containing the test compound. Two plates were set up for each concentration of the compound to be tested, as well as two control plates without compound. […] Colonies were stained with crystal violet solution (0.4% crystal violet, 20% ethanol) for 5 minutes, washed twice with distilled water, and counted."}, "[3]": {"molecular_target": "protein kinase C (mixed isozymes from rat brain)", "assay": "Protein kinase C assay (Histone H1, TCA precipitation)", "type": "biochemical", "conditions": "Table 5; read-out: PKC IC50", "procedure": "as §1\nProtein kinase C and protein kinase A were assayed using a TCA precipitation assay with Histone H1 as a substrate. For protein kinase A, the final assay contained 50 mM Tris, 10 mM MgCl2, 1 mM dithiothreitol, pH 7.5, 12 μM adenosine triphosphate, 10% (v/v) dimethylsulfoxide (from compounds), 20 μg Histone H1, 2 μCi [γ-^32P] adenosine triphosphate, 0.2 U protein kinase A in a 100 μL assay. A protein kinase C assay contained 50 mM Tris, 10 mM MgCl2, 1 mM dithiothreitol, 0.8 mM CaCl2, pH 7.5, 5 μM adenosine triphosphate, 10% (v/v) dimethylsulfoxide (from compounds), 20 μg Histone H1, 2 μCi [γ-^32P] adenosine triphosphate, 0.01 U protein kinase C in a 50 μL assay. The assays were started by the addition of enzyme, allowed to react for 10 min at 30° C., and stopped by adding 0.4 volumes of 237 mM disodium ethylenediamine tetraacetate, 105 mM adenosine triphosphate, pH 8.0. […] The filters were washed ten times with 25% (w/v) trichloroacetic acid, and the amount of incorporated [^32P]phosphate was determined by adding 100 μl Microscint and scintillation counting."}}}
{"smiles": "CC(C)N1CCN(C(=O)COc2ccc(-c3[nH]nc4c3C(=O)c3c(NC(=O)NN5CCOCC5)cccc3-4)cc2)CC1.Cl", "note": "[Compound A37]", "values": [{"measurement": "Effect on cell cycle distribution", "setting": "HCT-116 cells [1]", "value": "terminally arrested in G1 and G2, with evidence of apoptosis and endo-reduplication"}]}
{"smiles": "CC(C)c1nn(-c2c(Cl)cc(Cl)cc2Cl)c2nc(Cc3ccc(NS(=O)(=O)CCCN4CCCC4)cc3)[nH]c(=O)c12", "note": "[Compound A38]", "values": [{"measurement": "IC50", "setting": "HCT-116", "value": "< 100", "unit": "nM"}]}
{"smiles": "CC(C)c1nn(-c2c(Cl)cc(Cl)cc2Cl)c2nc(Cc3ccc(NS(=O)(=O)CCCN4CCN(C(C)C)CC4)cc3)[nH]c(=O)c12", "note": "[Compound A39]", "values": [{"measurement": "IC50", "setting": "HCT-116", "value": "< 100", "unit": "nM"}]}
{"smiles": "Cc1nc(Cc2nc3c(c(C(C)C)nn3-c3c(Cl)cccc3Cl)c(=O)[nH]2)cs1", "note": "[Compound A58]", "values": [{"measurement": "IC50", "setting": "HCT-116", "value": "< 100", "unit": "nM"}]}
{"smiles": "CC(C)c1nn(-c2c(Cl)cccc2Cl)c2nc(Cc3ccc(OCCO)cc3)[nH]c(=O)c12", "note": "[Compound A59]", "values": [{"measurement": "IC50", "setting": "HCT-116", "value": "< 100", "unit": "nM"}]}
{"smiles": "CC(C)c1nn(-c2c(Cl)cccc2Cl)c2nc(Cc3ccc(OCCOC(=O)[C@@H](N)C(C)C)cc3)[nH]c(=O)c12", "note": "[Compound A60]", "values": [{"measurement": "IC50", "setting": "Cdc2/cyclin B", "value": "< 1000", "unit": "nM"}, {"measurement": "IC50", "setting": "Cdk4/cyclin D1", "value": "< 10000", "unit": "nM"}]}
{"smiles": "CC(C)c1nn(-c2c(Cl)cc(Cl)cc2Cl)c2nc(Cc3ccc(OCCO)cc3)[nH]c(=O)c12", "note": "[Compound A61]", "values": [{"measurement": "IC50", "setting": "HCT-116", "value": "< 100", "unit": "nM"}]}
{"smiles": "COc1ccc(Cc2nc3c(c(C(C)C)nn3-c3c(Cl)cccc3Cl)c(=O)[nH]2)cc1", "note": "[Compound A67]", "values": [{"measurement": "IC50", "setting": "HCT-116", "value": "< 100", "unit": "nM"}]}
{"smiles": "COCCN1CCN(Cc2ccc(-c3[nH]nc4c3C(=O)c3c(NC(=O)NN5CCOCC5)cccc3-4)cc2)CC1.Cl.Cl", "note": "[Compound B16, N-[3-(4-{[4-(2-methoxyethyl)piperazinyl]methyl}phenyl)-4-oxoindeno[2,3-d]pyrazol-5-yl](morpholin-4-ylamino)carboxamide dihydrochloride]", "values": [{"measurement": "Time within which IC50 is reached", "setting": "HCT-116 cells [2]", "value": "30 to 60", "unit": "min"}, {"measurement": "Effect on cell cycle distribution", "setting": "HCT-116 cells [1]", "value": "Analogous results"}]}
{"smiles": "CC(C)c1nn(-c2c(Cl)cccc2Cl)c2nc(Cc3ccc(O)c(CN4CCN(C(C)C)CC4)c3)[nH]c(=O)c12", "note": "[Compound C]", "values": [{"measurement": "IC50", "setting": "[3]", "value": "> 10000", "unit": "nM"}]}
{"smiles": "CC(C)N1CCN(CCOc2ccc(-c3[nH]nc4c3C(=O)c3c(NC(=O)NN5CCOCC5)cccc3-4)cc2)CC1", "note": "[E]", "values": [{"measurement": "IC50", "setting": "[3]", "value": "< 10000", "unit": "nM"}]}
